These results are taken from patent US7011839B2, “Otic microbial combination for treatment of animals with ruptured tympanic membrane” (Baya Corporation, priority 2000, dated 2006).

Common to all, as to assay: MIC of each active ingredient (NCCLS agar plates)
Type in all cases: cell-based

One assay deals with Candida. To be noted: at the concentrations tested.
For assay [1], the system named is common dermal (otic) pathogens.
Description: (§1) An in vitro microbiology study of the combination of the Enrofloxacin (quinolone) and sulfadiazine was conducted on multiple canine otic pathogens. The study was conducted under the National Committee for Clinical Laboratory Standards (NCCLS) guidelines employing ATCC control organisms for each agar plate tested. Initially, minimum inhibitory concentrations (MICs) were established for each active ingredient.
In another assay the test system is Malassezia. To be noted: at the concentrations tested.

Description for Candida: as §1
Description for Malassezia: as §1

`CCN1CCN(c2cc3c(cc2F)c(=O)c(C(=O)O)cn3C2CC2)CC1` [Enrofloxacin]: the “Effectiveness on Candida” value in the assay on Candida is “not effective”. The “Activity on common dermal (otic) pathogens, based on MICs” value in assay [1] was “active”. Further, the “Effectiveness on Malassezia” value in the assay with Malassezia is given as “not effective”.
